In patent US20180141939A1, “SOLID FORMS OF A BET INHIBITOR” (Gilead Sciences, Inc., priority 2016, published 2018):

Assays:
Assay type in all cases: physicochemical
[1] = Approximate solubility in single solvents
Excerpt: (§1) In some embodiments, Compound I phosphate Form I, once formed, e.g., via the reactive crystallization methods disclosed herein, may be recrystallized from a variety of single solvents or binary solvent systems (e.g., solvent/anti-solvent systems) to promote desired physical characteristics such as crystal size. Recrystallization of Compound I phosphate Form I may occur with or without the addition of Compound I phosphate Form I seed material. The single solvents and binary solvent systems in which Compound I phosphate Form I may be recrystallized include, but are not limited to, MeOH, MeOH/EtOAc, DMA/MeCN, DMAc/toluene, DMF/MeCN, DMAc/MeCN, DMF/EtOAc, DMF/toluene, DMSO/MeCN, DMSO/MeCN, DMSO/IPA, NMP/MeCN, NMP/IPA, and NMP/EtOAc. A summary of the approximate solubility of Compound I phosphate Form I in various single solvents and binary solvent systems is provided in Tables I and II, respectively.

[2] = Approximate solubility in 1:1 (v/v) binary solvents
Excerpt: as §1

[3] = Kinetic aqueous solubility / solubility in water of salt and co-crystal forms; details: aqueous
[4] = Solid-state chemical stability at various storage conditions
[5] = Dissolution in 50 mM sodium acetate solution, pH 5; details: pH of 5
Method: The dissolution of […] and […] was also evaluated in a 50 mM sodium acetate solution at a pH of 5 (FIG. 92).

[6] = Relative stability of solid forms (competitive slurries); details: statement in words

Cc1noc(C)c1-c1cc(C(O)(c2ccccn2)c2ccccn2)c2nc(C3CC3)[nH]c2c1 [Compound I phosphate Form I, (2-cyclopropyl-6-(3,5-dimethylisoxazol-4-yl)-1H-benzo[d]imidazol-4-yl)di(pyridin-2-yl)methanol]
Approximate Solubility ([1]; 1,4-dioxane, 20-80° C.): remained a slurry | Approximate Solubility ([1]; 1-Propanol, 20-80° C.): remained a slurry | Approximate Solubility ([1]; 2-Butanol, 20-80° C.): remained a slurry | Approximate Solubility ([1]; 2-MeTHF, 20° C.): 0.64 mg-solid/ml-solvent | Approximate Solubility ([1]; 2-Propanol/IPA, 20° C.): 1.02 mg-solid/ml-solvent | Approximate Solubility ([1]; Acetic Acid, 20° C.): ~190 mg-solid/ml-solvent | Approximate Solubility ([1]; Acetic Acid, 50° C.): >190 mg-solid/ml-solvent | Approximate Solubility ([1]; Acetic Acid, 80° C.): >>190 mg-solid/ml-solvent | Approximate Solubility ([1]; Acetone, 20° C.): 0.48 mg-solid/ml-solvent | Approximate Solubility ([1]; Acetonitrile, 20° C.): 0.23 mg-solid/ml-solvent | Approximate Solubility ([1]; DCM (form changes), 20° C.): 1.54 mg-solid/ml-solvent | Approximate Solubility ([1]; DMAc, 50° C.): >78 mg-solid/ml-solvent | Approximate Solubility ([1]; DMAc, 80° C.): >>78 mg-solid/ml-solvent | Approximate Solubility ([1]; DMF, 50° C.): <70 mg-solid/ml-solvent | Approximate Solubility ([1]; DMF, 80° C.): >70 mg-solid/ml-solvent | Approximate Solubility ([1]; DMSO, 50° C.): >185 mg-solid/ml-solvent | Approximate Solubility ([1]; DMSO, 80° C.): >>185 mg-solid/ml-solvent | Approximate Solubility ([1]; EtOH/water, 20° C.): 22.7 mg-solid/ml-solvent | Approximate Solubility ([1]; Ethanol, 20° C.): 2.46 mg-solid/ml-solvent | Approximate Solubility ([1]; Ethyl acetate, 20° C.): 0.45 mg-solid/ml-solvent | Approximate Solubility ([1]; Heptane, 20° C.): <LOD | Approximate Solubility ([1]; Heptane, cell spans the 50° C. and 80° C. columns): remained a slurry | Approximate Solubility ([1]; Hexane, 20-80° C.): API adhered to vial walls | Approximate Solubility ([1]; Isopropyl acetate, 20° C.): 0.37 mg-solid/ml-solvent | Approximate Solubility ([1]; MEK, 20° C.): 2.14 mg-solid/ml-solvent | Approximate Solubility ([1]; MIBK, 20° C.): 0.31 mg-solid/ml-solvent | Approximate Solubility ([1]; MTBE, 20° C.): 0.16 mg-solid/ml-solvent | Approximate Solubility ([1]; Methanol, 20° C.): 12.56 mg-solid/ml-solvent | Approximate Solubility ([1]; NMP, 50° C.): >135 mg-solid/ml-solvent | Approximate Solubility ([1]; NMP, 80° C.): >>135 mg-solid/ml-solvent | Approximate Solubility ([1]; THF, 20° C.): 0.48 mg-solid/ml-solvent | Approximate Solubility ([1]; Toluene, 20° C.): 1.34 mg-solid/ml-solvent | Approximate Solubility ([1]; Water, 20° C.): 12.16 mg-solid/ml-solvent | Approximate Solubility ([2]; DMAc/2-MeTHF 1:1 (v/v), 50° C.): ~17.2 mg-solid/ml-solvent | Approximate Solubility ([2]; DMAc/Acetone 1:1 (v/v), 50° C.): ~11.3 mg-solid/ml-solvent | Approximate Solubility ([2]; DMAc/EtOAc 1:1 (v/v), 80° C.): ~10.8 mg-solid/ml-solvent | Approximate Solubility ([2]; DMAc/IPA 1:1 (v/v), 80° C.): ~21 mg-solid/ml-solvent | Approximate Solubility ([2]; DMAc/IPAc 1:1 (v/v), 50° C.): ~7.7 mg-solid/ml-solvent | Approximate Solubility ([2]; DMAc/MIBK 1:1 (v/v), 50° C.): ~15 mg-solid/ml-solvent | Approximate Solubility ([2]; DMAc/MeCN 1:1 (v/v), 50° C.): ~11.5 mg-solid/ml-solvent | Approximate Solubility ([2]; DMF/2-MeTHF 1:1 (v/v), 50° C.): ~14.3 mg-solid/ml-solvent | Approximate Solubility ([2]; DMF/Acetone 1:1 (v/v), 50° C.): ~19.5 mg-solid/ml-solvent | Approximate Solubility ([2]; DMF/EtOAc 1:1 (v/v), 50° C.): ~10.8 mg-solid/ml-solvent | Approximate Solubility ([2]; DMF/IPA 1:1 (v/v), 50° C.): ~14 mg-solid/ml-solvent | Approximate Solubility ([2]; DMF/IPAc 1:1 (v/v), 50° C.): ~13.7 mg-solid/ml-solvent | Approximate Solubility ([2]; DMF/MIBK 1:1 (v/v), 80° C.): ~6 mg-solid/ml-solvent | Approximate Solubility ([2]; DMF/MIBK 1:1 (v/v), cell spans the 20° C. and 50° C. columns): remained a thin slurry | Approximate Solubility ([2]; DMF/MeCN 1:1 (v/v), 50° C.): ~11 mg-solid/ml-solvent | Approximate Solubility ([2]; DMSO/2-MeTHF 1:1 (v/v), 20° C.): >51.5 mg-solid/ml-solvent | Approximate Solubility ([2]; DMSO/2-MeTHF 1:1 (v/v), 50° C.): >>51.5 mg-solid/ml-solvent | Approximate Solubility ([2]; DMSO/2-MeTHF 1:1 (v/v), 80° C.): >>>51.5 mg-solid/ml-solvent | Approximate Solubility ([2]; DMSO/Acetone 1:1 (v/v), 20° C.): >30 mg-solid/ml-solvent | Approximate Solubility ([2]; DMSO/Acetone 1:1 (v/v), 50° C.): >>30 mg-solid/ml-solvent | Approximate Solubility ([2]; DMSO/Acetone 1:1 (v/v), 80° C.): >>>30 mg-solid/ml-solvent | Approximate Solubility ([2]; DMSO/EtOAc 1:1 (v/v), 50° C.): >51.5 mg-solid/ml-solvent | Approximate Solubility ([2]; DMSO/EtOAc 1:1 (v/v), 80° C.): >>51.5 mg-solid/ml-solvent | Approximate Solubility ([2]; DMSO/IPA 1:1 (v/v), 80° C.): >41 mg-solid/ml-solvent | Approximate Solubility ([2]; DMSO/IPAc 1:1 (v/v), 20° C.): >32 mg-solid/ml-solvent | Approximate Solubility ([2]; DMSO/IPAc 1:1 (v/v), 50° C.): >>32 mg-solid/ml-solvent | Approximate Solubility ([2]; DMSO/IPAc 1:1 (v/v), 80° C.): >>>32 mg-solid/ml-solvent | Approximate Solubility ([2]; DMSO/MIBK 1:1 (v/v), 50° C.): >50.5 mg-solid/ml-solvent | Approximate Solubility ([2]; DMSO/MIBK 1:1 (v/v), 80° C.): >>50.5 mg-solid/ml-solvent | Approximate Solubility ([2]; DMSO/MeCN 1:1 (v/v), 50° C.): >33.5 mg-solid/ml-solvent | Approximate Solubility ([2]; DMSO/MeCN 1:1 (v/v), 80° C.): >>33.5 mg-solid/ml-solvent | Approximate Solubility ([2]; HOAC/2-MeTHF 1:1 (v/v), 80° C.): ~15.3 mg-solid/ml-solvent | Approximate Solubility ([2]; HOAC/Acetone 1:1 (v/v), 50° C.): >43 mg-solid/ml-solvent | Approximate Solubility ([2]; HOAC/Acetone 1:1 (v/v), 80° C.): >>43 mg-solid/ml-solvent | Approximate Solubility ([2]; HOAC/EtOAc 1:1 (v/v), 50° C.): ~13.8 mg-solid/ml-solvent | Approximate Solubility ([2]; HOAC/EtOAc 1:1 (v/v), 80° C.): >41.5 mg-solid/ml-solvent | Approximate Solubility ([2]; HOAC/IPA 1:1 (v/v), 80° C.): >44.5 mg-solid/ml-solvent | Approximate Solubility ([2]; HOAC/IPAc 1:1 (v/v), 50° C.): ~8.3 mg-solid/ml-solvent | Approximate Solubility ([2]; HOAC/IPAc 1:1 (v/v), 80° C.): >8.3 mg-solid/ml-solvent | Approximate Solubility ([2]; HOAC/MIBK 1:1 (v/v), 50° C.): ~22 mg-solid/ml-solvent | Approximate Solubility ([2]; HOAC/MIBK 1:1 (v/v), 80° C.): >22 mg-solid/ml-solvent | Approximate Solubility ([2]; HOAC/MeCN 1:1 (v/v), 20° C.): >30.5 mg-solid/ml-solvent | Approximate Solubility ([2]; HOAC/MeCN 1:1 (v/v), 50° C.): >>30.5 mg-solid/ml-solvent | Approximate Solubility ([2]; HOAC/MeCN 1:1 (v/v), 80° C.): >>>30.5 mg-solid/ml-solvent | Approximate Solubility ([2]; NMP/2-MeTHF 1:1 (v/v), 20° C.): ~12 mg-solid/ml-solvent | Approximate Solubility ([2]; NMP/2-MeTHF 1:1 (v/v), 80° C.): ~24 mg-solid/ml-solvent | Approximate Solubility ([2]; NMP/Acetone 1:1 (v/v), 50° C.): >24 mg-solid/ml-solvent | Approximate Solubility ([2]; NMP/Acetone 1:1 (v/v), 80° C.): >>24 mg-solid/ml-solvent | Approximate Solubility ([2]; NMP/IPAc 1:1 (v/v), 50° C.): ~15 mg-solid/ml-solvent | Approximate Solubility ([2]; NMP/IPAc 1:1 (v/v), 80° C.): >44 mg-solid/ml-solvent | Approximate Solubility ([2]; NMP/MeCN 1:1 (v/v), 80° C.): >27.5 mg-solid/ml-solvent | kinetic aqueous solubility [3]: about 3 mg/mL | % AN ([4]; 4° C., 1 month): 97.1% | % LS ([4]; 4° C., 1 month): 100.8% | % AN ([4]; 25° C./60% RH, 1 month): 97.1% | % LS ([4]; 25° C./60% RH, 1 month): 100.8% | % AN ([4]; 40° C./75% RH, 1 month): 97.2% | % LS ([4]; 40° C./75% RH, 1 month): 100.7% | % AN ([4]; 40° C./75% RH, open, 1 month): 97.1% | % LS ([4]; 40° C./75% RH, open, 1 month): 100.0% | % AN ([4]; 60° C., 1 month): 97.1% | % LS ([4]; 60° C., 1 month): 100.7% | % AN ([4]; Initial Time): 97.1% | chemical stability ([4]; up to about 40° C./75% RH for about 3 months): chemically stable | chemical stability ([4]; various conditions for about 1 month): chemically stable | % AN ([4]; −20° C., 1 month): 96.9% | % LS ([4]; −20° C., 1 month): 100.9% | dissolution [5]: dissolve rapidly and maintain solubility for about 24 hours | thermodynamic / physical stability of the solid form [6]: most thermodynamically stable form of Compound I phosphate in most solvents
